{"source": "patent US4465676A", "about": "“16α Halogen substituted 3,17β-dihydroxy steroidal estrogens” (priority 1980, dated 1984)", "key": {"[1]": {"molecular_target": "T1, estrogen receptor of human mammary tumors (Homo sapiens, UniProt P03372)", "T1 construct": "124 and 126", "T1 sequence (P03372 1-595)": "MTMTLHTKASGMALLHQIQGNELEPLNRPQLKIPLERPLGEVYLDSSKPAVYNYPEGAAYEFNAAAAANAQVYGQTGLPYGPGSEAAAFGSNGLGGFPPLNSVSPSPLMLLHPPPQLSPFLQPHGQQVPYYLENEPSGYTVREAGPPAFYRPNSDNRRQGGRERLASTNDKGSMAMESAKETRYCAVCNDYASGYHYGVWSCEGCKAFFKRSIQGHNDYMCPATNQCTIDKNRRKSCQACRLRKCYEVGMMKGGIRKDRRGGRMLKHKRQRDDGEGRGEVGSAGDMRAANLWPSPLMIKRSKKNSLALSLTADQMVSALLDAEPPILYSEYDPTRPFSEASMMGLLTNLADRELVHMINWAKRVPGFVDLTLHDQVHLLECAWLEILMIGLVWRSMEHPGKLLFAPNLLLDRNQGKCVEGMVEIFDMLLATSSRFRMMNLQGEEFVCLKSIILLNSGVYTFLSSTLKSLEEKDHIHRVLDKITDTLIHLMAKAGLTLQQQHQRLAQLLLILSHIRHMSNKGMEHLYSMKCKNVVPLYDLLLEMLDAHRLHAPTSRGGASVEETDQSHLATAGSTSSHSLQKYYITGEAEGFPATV", "assay": "Estrogen receptor assay in human mammary tumor cytosol", "assay_type": "binding", "conditions": "1.5 mg/ml protein", "experimental": "Extrogen receptor human mammary tumors were kept frozen in dry ice in a pulverized form. […] The final concentration of cytosolic protein used in the assay was 1.5 mg/ml.\nA pool of two different estrogen receptor-positive mammary tumors was studied."}, "[2]": {"system": "rat uterine cytosol (8S and 4S forms)", "assay": "Glycerol gradient sedimentation of labelled rat uterine cytosol", "assay_type": "binding", "conditions": "glycerol gradients, with and without 0.4M KCl; DES 7×10^-7 M", "experimental": "The analysis was performed with glycerol rather than the usual sucrose because a more pronounced 8S peak was obtained in the glycerol gradients with both ^3 H- and ^125 I-labeled estradiol. Rat uterine cytosol was prepared as described in Example 4. […] Separate tubes also contained 0.4M KCl. At the end of the incubation, free steroid was removed by adding the incubation mixture to a tube containing a 5-mg pellet of dextran-coated charcoal. After shaking for 5 to 10 minutes at 0° C., the charcoal was removed by centrifugation. […] Fractions of four drops were collected from the bottom of the tube. Control tubes containing cytosol mixed with ^14 C-labeled bovine serum albumin (BSA) as a marker were also analyzed. The sedimintation pattern is illustrated in FIG. 2. The low-salt 8S form (FIG. 2, Curve A) is totally transformed into the 4S form by 0.4M KCl (FIG. 2, Curve B)."}, "Rat Uterine Receptor": {"system": "Rat Uterine Receptor", "assay": "Tissue radioactivity 6 hours after injection into castrated female rats with and without DES", "assay_type": "in vivo, Sprague-Dawley rats", "experimental": "(§1) To deterine whether 16α-[^125 I]iodoestradiol would be recognized by estrogen-responsive tissues, it was injected into castrated female rats with and without diethylstilbestrol (DES); after 6 hours the concentration of radioactivity in the uterus was compared to that in several other tissues.\n(§2) Female Sprague-Dawley rats (200 to 250 g) were castrated 48 hours before subcutaneous injection of ^125 I-labeled estradiol (1×10^6 count/min) dissolved in 10 μl of ethanol and 0.2 ml of saline. Twenty minutes before the administration of the iodinated estradiol, one group of rats (N=6) were injected with 5 μg of DES dissolved first in 50 μl of ethanol and then in 0.5 ml of saline. Another group of castrated rats (N=6) were injected with 0.5 ml of 10 percent ethanol in saline before receiving the radioactive steroid. The rats were killed 6 hours later and small pieces of the tissues were weighed and counted. All values are means ± standard deviations. To determine ether extractable radioactivity, the uterus, liver, and thyroid were homogenized in methanol and filtered. The filtrate was evaporated and the resulting residue was partitioned between ether and 0.1N NaHCO3. The ethereal solution was evaporated and counted and the results are tabulated below in Table I.\n(§3) Several micrograms of 16α-iodoestradiol were added to the ether extract of the uterus and the mixture was submitted to high-pressure liquid chromatography. High pressure liquid chromatography was performed on a 250 by 4.6 mm Lichrosorb Diol column (merck) with methylene chloride at a flow rate of 1 ml/min. In this system 16α-iodoestradiol is eluted in 12 minutes and 16β-bromoestradiol in 8 minutes. […] The radioactivity in the thyroid gland, approximately 2000 count/min, is probably due to the uptake of free iodide arising from the metabolism of ^125 I-labeled estradiol in vivo and is equivalent to only 0.2 percent of the injected dose."}, "[3]": {"assay": "Tissue radioactivity 6 hours after injection into castrated female rats with and without DES", "assay_type": "in vivo, Sprague-Dawley rats", "experimental": "as §1, §2, §3"}}, "data": [{"smiles": "C[C@]12CC[C@@H]3c4ccc(O)cc4CC[C@H]3[C@@H]1C[C@@H]([125I])[C@@H]2O", "note": "[^125 I-E2, 16α-[^125 I]iodoestra-1,3,5(10)-triene-3,17β-diol]", "values": [{"measurement": "receptor concentration found with the ligand", "setting": "[1]; mammary tumor pool no. 124", "result": "24 fmol/mg of protein"}, {"measurement": "receptor concentration found with the ligand", "setting": "[1]; mammary tumor pool no. 126", "result": 72, "unit": "fmol/mg"}, {"measurement": "displacement by DES of radioactivity bound to the 8S and 4S forms", "setting": "[2]", "result": "almost completely displaced by DES"}, {"measurement": "nature of the radioactive material in the uterus", "setting": "Rat Uterine Receptor; HPLC of ether extract of uterus with 16α-iodoestradiol carrier", "result": "unmetabolized"}, {"measurement": "Radioactivity, With DES", "setting": "Rat Uterine Receptor; Heart, 5 μg DES, 6 hours", "result": "26 ± 7 count/min per 100 mg of tissue"}, {"measurement": "Radioactivity, Without DES", "setting": "Rat Uterine Receptor; Heart, 6 hours", "result": "23 ± 5 count/min per 100 mg of tissue"}, {"measurement": "Radioactivity, With DES", "setting": "Rat Uterine Receptor; Kidney, 5 μg DES, 6 hours", "result": "75 ± 20 count/min per 100 mg of tissue"}, {"measurement": "Radioactivity, Without DES", "setting": "Rat Uterine Receptor; Kidney, 6 hours", "result": "73 ± 33 count/min per 100 mg of tissue"}, {"measurement": "Radioactivity, With DES", "setting": "Rat Uterine Receptor; Liver, 5 μg DES, 6 hours", "result": "425 ± 105 count/min per 100 mg of tissue"}, {"measurement": "Radioactivity, Without DES", "setting": "Rat Uterine Receptor; Liver, 6 hours", "result": "446 ± 184 count/min per 100 mg of tissue"}, {"measurement": "Radioactivity, With DES", "setting": "Rat Uterine Receptor; Lung, 5 μg DES, 6 hours", "result": "56 ± 11 count/min per 100 mg of tissue"}, {"measurement": "Radioactivity, Without DES", "setting": "Rat Uterine Receptor; Lung, 6 hours", "result": "47 ± 23 count/min per 100 mg of tissue"}, {"measurement": "Radioactivity, With DES", "setting": "Rat Uterine Receptor; Muscle, 5 μg DES, 6 hours", "result": "18 ± 12 count/min per 100 mg of tissue"}, {"measurement": "Radioactivity, Without DES", "setting": "Rat Uterine Receptor; Muscle, 6 hours", "result": "33 ± 23 count/min per 100 mg of tissue"}, {"measurement": "Radioactivity, With DES", "setting": "Rat Uterine Receptor; Serum, 5 μg DES, 6 hours", "result": "68 ± 6 count/min per 100 mg of tissue"}, {"measurement": "Radioactivity, Without DES", "setting": "Rat Uterine Receptor; Serum, 6 hours", "result": "69 ± 11 count/min per 100 mg of tissue"}, {"measurement": "Radioactivity, With DES", "setting": "Rat Uterine Receptor; Thyroid, entire organ, 5 μg DES, 6 hours", "result": "2287 ± 805", "unit": "count/min"}, {"measurement": "Radioactivity, Without DES", "setting": "Rat Uterine Receptor; Thyroid, entire organ, 6 hours", "result": "1839 ± 802", "unit": "count/min"}, {"measurement": "Radioactivity, With DES", "setting": "Rat Uterine Receptor; Uterus, 5 μg DES 20 min before, 6 hours", "result": "73 ± 8 count/min per 100 mg of tissue"}, {"measurement": "Radioactivity, Without DES", "setting": "Rat Uterine Receptor; Uterus, castrated rats, 6 hours after s.c. injection", "result": "313 ± 150 count/min per 100 mg of tissue"}, {"measurement": "radioactivity in the thyroid gland as share of injected dose", "setting": "Rat Uterine Receptor; thyroid gland", "result": "0.2% of the injected dose"}, {"measurement": "radioactivity in the thyroid gland", "setting": "Rat Uterine Receptor; thyroid gland, probably free iodide", "result": "approximately 2000 count/min"}, {"measurement": "Ether-extractable radioactivity", "setting": "[3]; Liver", "result": "10-15%"}, {"measurement": "Ether-extractable radioactivity", "setting": "[3]; Thyroid", "result": "0-1%"}, {"measurement": "Ether-extractable radioactivity", "setting": "[3]; Uterus", "result": "> 90", "unit": "%"}]}]}
